# Measurements: ChEMBL document CHEMBL5236608, “Discovery and Optimization of Potent and Orally Available CTP Synthetase Inhibitors for Use in Treatment of Diseases Driven by Aberrant Immune Cell Proliferation” (J Med Chem, 2022)
# Experiments:
# in vivo [1] = settings: CD-1, mouse, po, 10 mg/kg
# in vitro [2] = settings: mouse, hepatocytes
# in vitro [3] = settings: human, Caco-2
# in vivo [4] = settings: CD-1, mouse, po, 10 mg/kg; remark: listed apart in the source
# in vivo [5] = settings: CD-1, mouse, po, 10 mg/kg; remark: listed apart in the source
# [6] = Dose normalized AUC(0 to t) in collagen-induced arthritis mouse at 10 mg/kg, po measured at day 2; assay type: ADME, organism-based; settings: in vivo, 48 h, time 2 day
# [7] = Dose normalized AUC(0 to t) in collagen-induced arthritis mouse at 50 mg/kg, po measured at day 9; assay type: ADME, organism-based; settings: in vivo, 216 h, time 9 day
# [8] = Cmax in collagen-induced arthritis mouse at 10 mg/kg, po measured at day 19; assay type: ADME, organism-based; set-up: dose 10 mg/kg, time 19 day, route po; settings: in vivo
# [9] = Dose normalized AUC(0 to t) in collagen-induced arthritis mouse at 10 mg/kg, po measured at day 19; assay type: ADME, organism-based; settings: in vivo, 456 h, time 19 day
# [10] = AUC(0 to t) in collagen-induced arthritis mouse at 10 mg/kg, po measured at day 19; assay type: ADME, organism-based; set-up: dose 10 mg/kg, time 19 day, route po; settings: in vivo
# [11] = AUC(0 to t) in collagen-induced arthritis mouse at 50 mg/kg, po measured at day 2; assay type: ADME, organism-based; set-up: dose 50 mg/kg, time 2 day, route po; settings: in vivo
# [12] = Dose normalized AUC(0 to t) in collagen-induced arthritis mouse at 10 mg/kg, po measured at day 9; assay type: ADME, organism-based; settings: in vivo, 216 h, time 9 day
# [13] = Dose normalized AUC(0 to t) in collagen-induced arthritis mouse at 50 mg/kg, po measured at day 2; assay type: ADME, organism-based; settings: in vivo, 48 h, time 2 day
# [14] = AUC(0 to t) in collagen-induced arthritis mouse at 10 mg/kg, po measured at day 2; assay type: ADME, organism-based; set-up: time 2 day, dose 10 mg/kg, route po; settings: in vivo
# [15] = Dose normalized AUC(0 to t) in collagen-induced arthritis mouse at 50 mg/kg, po measured at day 19; assay type: ADME, organism-based; settings: in vivo, 456 h, time 19 day
# [16] = Cmax in collagen-induced arthritis mouse at 50 mg/kg, po measured at day 19; assay type: ADME, organism-based; set-up: dose 50 mg/kg, time 19 day, route po; settings: in vivo
# [17] = Cmax in collagen-induced arthritis mouse at 50 mg/kg, po measured at day 2; assay type: ADME, organism-based; set-up: dose 50 mg/kg, time 2 day, route po; settings: in vivo
# [18] = Cmax in collagen-induced arthritis mouse at 10 mg/kg, po measured at day 9; assay type: ADME, organism-based; set-up: time 9 day, dose 10 mg/kg, route po; settings: in vivo
# [19] = AUC(0 to t) in collagen-induced arthritis mouse at 50 mg/kg, po measured at day 9; assay type: ADME, organism-based; set-up: time 9 day, dose 50 mg/kg, route po; settings: in vivo
# [20] = Lipophilicity, logD of the compound at pH 7.4; assay type: physicochemical; settings: buffer
# [21] = Cmax in collagen-induced arthritis mouse at 50 mg/kg, po measured at day 9; assay type: ADME, organism-based; set-up: dose 50 mg/kg, time 9 day, route po; settings: in vivo
# [22] = AUC(0 to t) in collagen-induced arthritis mouse at 10 mg/kg, po measured at day 9; assay type: ADME, organism-based; set-up: time 9 day, dose 10 mg/kg, route po; settings: in vivo
# [23] = AUC(0 to t) in collagen-induced arthritis mouse at 50 mg/kg, po measured at day 19; assay type: ADME, organism-based; set-up: dose 50 mg/kg, time 19 day, route po; settings: in vivo
# [24] = Cmax in collagen-induced arthritis mouse at 10 mg/kg, po measured at day 2; assay type: ADME, organism-based; set-up: dose 10 mg/kg, time 2 day, route po; settings: in vivo
compound,measurement,setting,value
CS(=O)(=O)Nc1nc(CC(=O)Nc2cccc(Cl)c2)cs1,pKa,physchem,6.58
CC(C)(C(=O)Nc1ccc(-c2cncc(C(F)(F)F)n2)cc1F)c1csc(NS(=O)(=O)C2CC2)n1,Cmax,in vivo [1],11.1 µM
same,"hepatocyte CLint at 1 h, 1 µM",in vitro [2],< 1 µL/min/1e6 cells
same,"Papp A→B at 2 h, 10 µM",in vitro [3],9.9 ×10⁻⁶ cm/s
same,AUC(0-t),in vivo [4],56.1 µM·h
same,bioavailability,in vivo [5],95%
CC(C)(C(=O)Nc1ccc(-c2cncc(C(F)(F)F)n2)cn1)c1csc(NS(=O)(=O)C2CC2)n1,Cmax,in vivo [1],5.3 µM
same,AUCt/dose,[6],1503 ng·h/mL
same,AUCt/dose,[7],587 ng·h/mL
same,"hepatocyte CLint at 1 h, 1 µM",in vitro [2],8 µL/min/1e6 cells
same,Cmax,[8],3570 ng/mL
same,"Papp A→B at 2 h, 10 µM",in vitro [3],7.1 ×10⁻⁶ cm/s
same,AUCt/dose,[9],1049 ng·h/mL
same,AUC(0-t) at 456 h,[10],10500 ng·h/mL
same,AUC(0-t) at 48 h,[11],43700 ng·h/mL
same,AUCt/dose,[12],1188 ng·h/mL
same,AUCt/dose,[13],873 ng·h/mL
same,AUC(0-t) at 48 h,[14],15000 ng·h/mL
same,AUC(0-t),in vivo [4],25.3 µM·h
same,AUCt/dose,[15],1052 ng·h/mL
same,Cmax,[16],13000 ng/mL
same,Cmax,[17],7830 ng/mL
same,pKa,physchem,6.26
same,Cmax,[18],3360 ng/mL
same,AUC(0-t) at 216 h,[19],29400 ng·h/mL
same,logD,[20],2.46
same,Cmax,[21],6390 ng/mL
same,AUC(0-t) at 216 h,[22],11900 ng·h/mL
same,AUC(0-t) at 456 h,[23],52600 ng·h/mL
same,Cmax,[24],4770 ng/mL
CCCOc1ccc(NC(=O)C(C)(C)c2csc(NS(=O)(=O)C3CC3)n2)cc1,Cmax,in vivo [1],0.9 µM
same,"hepatocyte CLint at 1 h, 1 µM",in vitro [2],32 µL/min/1e6 cells
same,AUC(0-t),in vivo [4],2.34 µM·h
same,bioavailability,in vivo [5],35%
